Test results: patent US9994552B2, “Compositions useful for treating disorders related to kit” (BLUEPRINT MEDICINES CORPORATION, priority 2013, dated 2018)

Columns and labels:
D816V Kit = D816V Kit (Homo sapiens (Human), UniProt P10721, D816V); experiment: Kit D816V assay at Km (Caliper electrophoretic mobility shift); format: biochemical; details: for IC50: D816V Kit 0.5 nM, 15 uM ATP (Km), 1 uM Srctide, 25 C, 90 minutes, read-out: INH-KITD816V ENZ-KM IC50 (nM) (Num); for times more potent against the D816V mutant than against the wild-type Kit: D816V Kit versus wild-type Kit, enzyme assays at Km
Experimental: (§1) In order to assess the activity of chemical compounds against the relevant kinase of interest, the Caliper LifeSciences electrophoretic mobility shift technology platform is used. Fluorescently labeled substrate peptide is incubated in the presence of kinase and ATP so that a […] proportion of the peptide is phosphorylated. At the end of the reaction, the mix of phosphorylated (product) and non-phosphorylated (substrate) peptides are passed through the microfluidic system of the Caliper EZ Reader 2, under an applied potential difference. The presence of the phosphate group on the product peptide provides a difference in mass and charge between those of the substrate peptide, resulting in a separation of the substrate and product pools in the sample. As the pools pass a LEDS within the instrument, these pools are detected and resolved as separate peaks. The ratio between these peaks therefore reflects the activity of the chemical matter at that concentration in that well, under those conditions.
(§2) The reaction was stopped by the addition of 70 ul of Stop buffer (100 mM HEPES pH 7.5, 0.015% Brij 35, 35 mM EDTA and 0.2% of Coating Reagent 3 (Caliper Lifesciences)). The plate was then read on a Caliper EZReader 2 (protocol settings: −1.9 psi, upstream voltage −700, downstream voltage −3000, post sample sip 35 s).

wild type Kit = wild type Kit (Homo sapiens (Human), UniProt P10721); experiment: Kit wild type assay at Km (Caliper electrophoretic mobility shift); format: biochemical; details: wild type Kit 2 nM, 400 uM ATP (Km), 1 uM Srctide, 25 C, 90 minutes; read-out: INH-KITWT ENZ-KM IC50 (nM) (Num)
Experimental: as §1, §2

HMC1.2 cells = experiment: HMC1.2 Proliferation Assay (CellTiter-Glo); details: 72 h, read-out: HMC1.2 Proliferation IC50
Experimental: 1000 HMC1.2 cells were incubated in 22 ul culture media (IMDM, 10% calf serum with Iron) in each well of a 384-well plate overnight in a tissue culture incubator (5% CO2, 37° C.). […] After 3 days incubation in tissue culture incubator, 25 ul CellTiter-Glo (Promega) solution was added to each well for ATP/cell viability measurement.
In addition, these compounds were assayed for their ability to inhibit the dependence of these cells on Kit kinase activity by disrupting their growth and proliferation.

[1] = molecular target: Kit D816V kinase activity (Kit autophosphorylation at tyrosine 719) (Homo sapiens (Human), UniProt P10721, D816V/V560G); experiment: HMC1.2 Autophosphorylation Assay (AlphaLISA phospho-Y719 c-Kit)
Kit D816V kinase activity (Kit autophosphorylation at tyrosine 719), sequence (P10721 26-976 V560G/D816V): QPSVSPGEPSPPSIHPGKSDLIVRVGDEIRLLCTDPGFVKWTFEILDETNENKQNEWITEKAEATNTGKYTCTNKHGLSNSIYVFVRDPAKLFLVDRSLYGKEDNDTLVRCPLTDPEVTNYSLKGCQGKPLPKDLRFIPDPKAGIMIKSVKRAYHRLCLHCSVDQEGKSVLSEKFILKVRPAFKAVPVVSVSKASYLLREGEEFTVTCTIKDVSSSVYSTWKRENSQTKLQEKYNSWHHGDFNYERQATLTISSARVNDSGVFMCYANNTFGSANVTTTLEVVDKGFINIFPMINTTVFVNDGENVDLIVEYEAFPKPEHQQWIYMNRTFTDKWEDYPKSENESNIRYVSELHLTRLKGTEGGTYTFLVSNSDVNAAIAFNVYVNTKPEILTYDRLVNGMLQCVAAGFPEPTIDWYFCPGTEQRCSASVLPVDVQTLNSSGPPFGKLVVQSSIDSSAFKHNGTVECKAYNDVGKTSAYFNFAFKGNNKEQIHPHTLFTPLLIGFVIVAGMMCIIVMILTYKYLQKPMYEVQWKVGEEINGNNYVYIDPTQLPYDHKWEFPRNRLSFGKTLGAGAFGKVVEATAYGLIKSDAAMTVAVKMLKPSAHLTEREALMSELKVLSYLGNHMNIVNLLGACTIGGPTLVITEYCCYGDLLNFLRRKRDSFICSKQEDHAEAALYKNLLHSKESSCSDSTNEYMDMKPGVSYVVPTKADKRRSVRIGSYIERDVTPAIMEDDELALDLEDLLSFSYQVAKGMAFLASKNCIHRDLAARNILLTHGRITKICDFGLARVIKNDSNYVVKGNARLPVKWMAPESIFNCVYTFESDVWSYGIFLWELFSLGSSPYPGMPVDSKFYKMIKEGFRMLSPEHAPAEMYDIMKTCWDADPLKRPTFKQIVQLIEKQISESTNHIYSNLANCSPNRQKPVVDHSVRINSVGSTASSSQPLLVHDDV
Experimental: 10,000 HMC1.2 cells were incubated in 22 ul culture media (phenol-red free IMDM, no serum) in each well of a 384-well plate and serum starved overnight in a tissue culture incubator (5% CO2, 37° C.). […] After 90 minutes, 6 ul of 5× AlphaLISA Lysis Buffer (Perkin Elmer) supplemented with a protease and phosphatase inhibitor cocktail (Cell Signaling Technologies) was added to each well and shaken at 450 rpm for 15 minutes at 4° C. […] 10 ul of 100 ug/ml streptavidin donor beads (Perkin Elmer) were added to each well, blocked from light with aluminum adhesive and shaken at 300 rpm at room temperature for 2 hours. Fluorescence signal was obtained on Envision (Perkin Elmer) by AlphaScreen 384 well HTS protocol.

D816V Kit, sequence (P10721 26-976 D816V): as the sequence (P10721 26-976 V560G/D816V) above, with G535V counted along it
wild type Kit, sequence (P10721 26-976): as the sequence (P10721 26-976 V560G/D816V) above, with G535V, V791D counted along it

Row | IC50 (D816V Kit) | times more potent against the D816V mutant than against the wild-type Kit (D816V Kit) | IC50 (wild type Kit) | IC50 [1] | Structure (SMILES) | IC50 (HMC1.2 cells)
1 | 1.01 to 10 nM |  | 11 to 100 nM | 10 to 100 nM | COc1cc2ncnc(N3CCN(c4ncc(Cc5ccccc5)cn4)CC3)c2cc1OCC1CNC1 [Compound 79] | 1000 to 10000 nM
2 | < 1 nM |  | 11 to 100 nM | 10 to 100 nM | COc1cc2ncnc(N3CCN(c4ncc(Cc5ccccc5)cn4)CC3)c2cc1OCC1CCNCC1 [Compound 98] | 1000 to 10000 nM
3 | 1.01 to 10 nM |  | 11 to 100 nM | 100 to 1000 nM | COc1cc2ncnc(N3CCN(c4ncc(Cc5ccccc5)cn4)CC3)c2cc1OC1CCN(C)CC1 [Compound 99] | 1000 to 10000 nM
4 | < 1 nM |  | 11 to 100 nM | 10 to 100 nM | COc1cc2ncnc(N3CCN(c4ncc(Cc5ccccc5)cn4)CC3)c2cc1OCC1CCNC(=O)C1 (centres unmarked) [Compound 109] | 1000 to 10000 nM
5 | < 1 nM |  | 11 to 100 nM | 10 to 100 nM | COc1cc2ncnc(N3CCN(c4ncc(Cc5ccccc5)cn4)CC3)c2cc1OCC1CCN(C)CC1 [Compound 112] | 1000 to 10000 nM
6 | < 1 nM |  | < 10 nM | 1000 to 10000 nM | COc1cc2ncnc(N3CCN(c4ncc(Cc5ccccc5)c(=O)[nH]4)CC3)c2cc1OCC1CNCCO1 (centres unmarked) [Compound 119] | > 10000 nM
7 | < 1 nM |  | < 10 nM | < 10 nM | COc1cc2ncnc(N3CCN(c4ncc(Cc5ccccc5)c(N)n4)CC3)c2cc1OCC1CCN(C)CC1 [Compound 125] | 100 to 1000 nM
8 | < 1 nM | less than 5 times | < 10 nM |  | CCOc1cc2ncnc(N3CCN(c4ncc(Cc5ccccc5)c(=O)[nH]4)CC3)c2cc1OCC1CCN(C)CC1 [Compound 138] | 
9 | 1.01 to 10 nM |  | 11 to 100 nM |  | COc1cc2ncnc(N3CCN(c4ncc(Cc5ccccc5)cn4)CC3)c2cc1OCC1CCN(CCO)CC1 [Compound 139] | 
10 | 1.01 to 10 nM |  | 11 to 100 nM |  | COc1cc2ncnc(N3CCN(c4ncc(Sc5ccc(F)cc5)cn4)CC3)c2cc1OCC1CCN(C)CC1 [Compound 140] | 

More lines, now with the values behind:

Row | Structure (SMILES) | IC50 (D816V Kit) | times more potent against the D816V mutant than against the wild-type Kit (D816V Kit) | IC50 (wild type Kit) | IC50 [1] | IC50 (HMC1.2 cells)
11 | c1ccc(Cc2cnc(N3CCN(c4ncnc5[nH]cnc45)CC3)nc2)cc1 [Compound 1] | 10 to 100 nM | at least 100 times | > 1000 nM | > 10000 nM | 1000 to 10000 nM
12 | COc1ccc2ncnc(N3CCN(c4ncc(Cc5ccccc5)cn4)CC3)c2c1 [Compound 5] | 10 to 100 nM |  | 100 to 1000 nM |  | 1000 to 10000 nM
13 | COc1ccc2ncnc(N3CCN(c4ncc(Cc5ccccc5)cn4)[C@H](C)C3)c2c1 [Compound 7] | 10 to 100 nM |  | 100 to 1000 nM |  | 1000 to 10000 nM
14 | COc1cc2ncnc(N3CCN(c4ncc(Nc5ccccc5)cn4)CC3)c2cc1OC [Compound 13, 2-(4-(6,7-dimethoxyquinazolin-4-yl)piperazin-1-yl)-N-phenylpyrimidin-5-amine] | 1.01 to 10 nM |  | 100 to 1000 nM | 100 to 1000 nM | 1000 to 10000 nM
15 | COc1cc2ncnc(N3CCN(c4ncc(Cc5ccc(C)cc5)cn4)C(=O)C3)c2cc1OC [Compound 22] | 1.01 to 10 nM |  | 11 to 100 nM |  | 1000 to 10000 nM
16 | COc1cc2ncnc(N3CCN(c4ncc(Cc5ccccc5)cn4)C(C)C3)c2cc1OC (centres unmarked) [Compound 23] | 1.01 to 10 nM | less than 5 times | 11 to 100 nM | 100 to 1000 nM | 1000 to 10000 nM
17 | COc1cc2ncnc(N3CCN(c4ncc(Nc5ccccc5)cn4)[C@H](C)C3)c2cc1OC [Compound 30] | 1.01 to 10 nM |  | 100 to 1000 nM |  | 1000 to 10000 nM
18 | COc1cc2ncnc(N3CCN(c4ncc(Cc5ccccc5)c(O)n4)CC3)c2cc1OC [Compound 35] | < 1 nM |  | < 10 nM | 100 to 1000 nM | 100 to 1000 nM
19 | COc1cc2ncnc(N3CCN(c4ncc(COc5ccccc5)cn4)CC3)c2cc1OC [Compound 36] | 1.01 to 10 nM |  | 11 to 100 nM | 100 to 1000 nM | 1000 to 10000 nM
20 | COc1cc2ncnc(N3CCN(c4ncc(Nc5ccc(F)cc5)cn4)CC3)c2cc1OC [Compound 42] | 1.01 to 10 nM |  | 100 to 1000 nM |  | 1000 to 10000 nM
21 | COc1cc2ncnc(N3CCN(c4ncc(Cc5ccccc5)cn4)CC3)c2cc1OCC(O)CO (centres unmarked) [Compound 84] | 1.01 to 10 nM |  | 11 to 100 nM | 100 to 1000 nM | 1000 to 10000 nM
22 | COc1cc2c(N3CCN(c4ncc(Cc5ccccc5)cn4)CC3)ncnc2cc1OCC(O)CO (centres unmarked) [Compound 85] | 1.01 to 10 nM |  | 11 to 100 nM | 100 to 1000 nM | 1000 to 10000 nM
23 | COc1cc2ncnc(N3CCN(c4ncc(Cc5ccc(C(F)(F)F)cc5)cn4)CC3)c2cc1OC [Compound 88] | 10 to 100 nM |  | 100 to 1000 nM |  | > 10000 nM
24 | COc1cc2ncnc(N3CCN(c4ncc(Cc5ccccc5)cn4)CC3)c2cc1OCC1CNCCO1 (centres unmarked) [Compound 105] | < 1 nM |  | 11 to 100 nM | 10 to 100 nM | 100 to 1000 nM
25 | COc1cc2c(N3CCN(c4ncc(Br)cn4)CC3)ncnc2cc1OCCCN1CCCC1 [Compound 107] | 10 to 100 nM |  | 100 to 1000 nM |  | 1000 to 10000 nM
26 | COc1cc2c(N3CCN(c4ncc(Cc5ccccc5)cn4)CC3)ncnc2cc1OCCN1CCCC1=O [Compound 111] | < 1 nM |  | 11 to 100 nM | 100 to 1000 nM | 1000 to 10000 nM
27 | COc1cc2c(N3CCN(c4ncc(Cc5ccccc5)cn4)CC3)ncnc2cc1OCCCN1CCCCC1 [Compound 123] | 10 to 100 nM |  | 100 to 1000 nM | 1000 to 10000 nM | 1000 to 10000 nM
28 | COc1cc2c(N3CCN(c4ncc(Cc5ccccc5)cn4)CC3)ncnc2cc1OCCCN1CCN(C)CC1 [Compound 134] | < 1 nM |  | < 10 nM | 10 to 100 nM | 100 to 1000 nM
29 | COc1cc2ncnc(N3CCN(c4ncc(Cc5ccccc5)cn4)CC3)c2cc1OCCCN1CCN(C)CC1 [Compound 136] | < 1 nM |  | 11 to 100 nM | 100 to 1000 nM | 1000 to 10000 nM
30 | COc1cc2c(N3CCN(c4ncc(Nc5ccc(C)cc5)cn4)CC3)ncnc2cc1OCCCN1CCCCC1 [Compound 137] | 1.01 to 10 nM |  | 11 to 100 nM | 100 to 1000 nM | 1000 to 10000 nM
